Reference: PMC7472354, “Enhanced Antimicrobial Activity of N-Terminal Derivatives of a Novel Brevinin-1 Peptide from The Skin Secretion of Odorrana schmackeri” (Toxins, 2020)
In brackets after ≈: the same amount, converted by molar mass. Read-outs that look alike come from different tables or passages of the source. Where a SMILES comes first, the peptide text is derived from it.

Tests used:
[1] = system: MRSA (ATCC 12493) biofilm; assay type: cell-based, Staphylococcus aureus; settings: for MBIC50 / MBIC90: ATCC 12493, 24 h
Procedure: (§1) The anti-biofilm effects of all synthetic peptides were evaluated, which was described in our previous study. The organisms, including S. aureus (NCTC 10788), E. coli (NCTC 10418), MRSA (ATCC 12493), E. faecalis (NCTC 12697) and P. aeruginosa (ATCC 27853), were investigated in this study. Gram-positive bacteria were cultured in the TSB broth and Gram-negative bacteria were cultured in the LB broth. The anti-biofilm effects were determined based on the MBIC and MBEC of all the peptides. For the determination of MBIC, 5 × 10^5 CFU/mL bacterial cultures were incubated with the peptides concentrations (ranging from 1 µM to 512 µM) for 24 h. The sterilised medium and bacterial suspension without any treatment were used as the negative controls and positive controls, respectively. After incubation, wells were rinsed, fixed, stained, washed and dissolved with phosphate buffer saline (PBS), methanol (90%, v/v), crystal violet (0.1%, w/v), sterile deionised water and acetic acid (30%, v/v), respectively. The absorbance of dissolved stain was measured at a 595 nm using a Synergy HT plate reader (Biotech, Minneapolis, MN, USA).
(§2) For the MBEC assay, the peptide concentrations were prepared as above. The bacteria were cultured in the 96 well plate for 24–48 h, which allowed the formation of mature biofilm in the plate. Then, the bacterial culture was removed from the plate. The biofilm was further washed to remove the planktonic bacteria using PBS. Then, the fresh broth that contained different peptide concentrations was added in the plate for incubation of 24 h at 37 °C. After incubation, the plate was stained by crystal violet as mentioned above. The definition of MBIC can be given when compared to the negative control group (≥90%, MBIC90; ≥50%, MBIC50). The definition of the MBEC can be given when compared to the negative control group (≥90%, MBEC90; ≥50%, MBEC50).

[2] = system: S. aureus (NCTC 10788) biofilm; assay type: cell-based, Staphylococcus aureus; settings: for MBIC50 / MBIC90: NCTC 10788, 24 h
Procedure: as §1, §2

[3] = system: E. faecalis (NCTC 12697) biofilm; assay type: cell-based, Enterococcus faecalis; settings: for MBIC50 / MBIC90: NCTC 12697, 24 h
Procedure: as §1, §2

[4] = system: E. coli (NCTC 10418) biofilm; assay type: cell-based, Escherichia coli; settings: for MBIC50 / MBIC90: NCTC 10418, 24 h
Procedure: as §1, §2

[5] = system: P. aeruginosa (ATCC 27853) biofilm; assay type: cell-based, Pseudomonas aeruginosa; settings: for MBIC50 / MBIC90: ATCC 27853, 24 h
Procedure: as §1, §2

[6] = system: E. faecalis; assay type: cell-based, Enterococcus faecalis; settings: 24 h
Procedure: The minimal inhibitory concentrations (MICs) and minimum bactericidal concentrations (MBCs) were evaluated to determine the antimicrobial activity of synthetic peptides. The microorganisms employed in the study are two kinds of Gram-negative bacteria, Escherichia coli (NCTC 10418) and Pseudomonas aeruginosa (ATCC 27853), three kinds of Gram-positive bacteria, Staphylococcus aureus (NCTC 10788), Methicillin-resistant Staphylococcus aureus (MRSA, ATCC 12493) and Enterococcus faecalis (NCTC 12697) and a yeast, Candida albicans (NCPF 1467), as indicated previously. For antimicrobial assays, 5 × 10^5 CFU/mL of bacterial suspensions were incubated with the concentrations of the peptides (ranging from 1 µM to 512 µM) for 24 h at 37 °C. The sterilised broth medium was used as the positive control and the microorganism cultured in the medium only was treated as the negative control. […] The MBC results were defined as the lowest bactericidal concentrations of peptide. The antimicrobial activity of peptides was tested by monitoring the absorbance at 550 nm using an ELISA plate reader (Biolise BioTek EL808, Winooski, VT, USA).
The activity of peptides in the different environmental conditions including different concentrations of NaCl (50, 100 and 150 mM) and MgCl2 (0.5, 1 and 2 mM), pH (6, 7 and 8), temperature (50 °C, 75 °C and 100 °C) and 10% fetal bovine serum (FBS) solution, was evaluated using the broth microdilution assay as described in the antimicrobial activity assay. For the stability test of peptides in the presence of salt, pH and serum, these conditions were adjusted in the fresh medium that was further used to dilute the bacteria suspension. The peptides were also dissolved in such broth and mixed with the bacteria suspension in the 96 well plate. For the thermal stability test, the peptides were dissolved in the water and incubated at different temperature for 15 min before dosing in the plate. The sterilised broth with corresponding conditions was used as the positive controls, and the bacteria suspension without any treatment was used as the negative controls.

[7] = system: Galleria mellonella larvae; experiment: Toxicity to uninfected Galleria mellonella larvae; assay type: in vivo; settings: uninfected G. mellonella larvae injected with drug; n = 30 per group; vancomycin 20 mg/kg
Procedure: The in vivo study of antimicrobial activity of the peptides was evaluated using the larvae of Galleria mellonella, which was described in the previous study with minor modifications. The larvae of Galleria mellonella (250 ± 25 mg; Livefood UK Ltd., Rooks Bridge, UK) were selected. The MRSA culture was prepared the same way as the antimicrobial activity assay. Then, MRSA cells were collected and washed, and further diluted to 10^8 CFU/mL in the saline. Ten µL of MRSA suspension was injected to the larvae and placed in a petri dish. After 2 h, the MRSA infected larvae were administrated with 10 µL of peptides (25 mg/kg, 50 mg/kg) by injection. Saline and vancomycin (20 mg/kg) (Sigma-Aldrich, UK) were used as the negative control and positive control, respectively. Each sample group contained 10 larvae, and the experiment was repeated three times (30 larvae for each group in total). The survival curves were achieved using Prism (Version 6.0; GraphPad Software Inc., San Diego, CA, USA) and the log-rank test was employed to analyze the significance between the different treatments and the controls. * (p < 0.05), ** (p < 0.01) and *** (p < 0.001) represent statistical significance.
Figure A9 Larvae without any MRSA infection were injected with peptides and vancomycin respectively to access the cytotoxicity of the drugs to larvae bodies. […] Effect of treatment of G. mellonella larvae (n = 30 for each group) without any infection and only treated with 5 µL vancomycin (20 mg/kg), OSd, OSe and OSf.

Compound | MBEC50 [1] | MBEC90 [1] | MBIC50 [1] | MBIC90 [1] | MBEC50 [2] | MBEC90 [2] | MBIC50 [2] | MBIC90 [2] | MBEC50 [3] | MBEC90 [3] | MBIC50 [3] | MBIC90 [3] | MBEC50 [4] | MBEC90 [4] | MBIC50 [4] | MBIC90 [4] | MBEC50 [5] | MBEC90 [5] | MBIC50 [5] | MBIC90 [5] | further results
CC(C)C[C@H](NC(=O)[C@H](C)NC(=O)[C@H](Cc1c[nH]c2ccccc12)NC(=O)[C@H](CCCCN)NC(=O)[C@H](CC(C)C)NC(=O)[C@@H](N)Cc1ccccc1)C(=O)N[C@@H](CCCCN)C(=O)N[C@H](C(=O)N[C@@H](C)C(=O)N[C@@H](C)C(=O)N[C@@H](CCCCN)C(N)=O)C(C)C [OSd] (H-FLKWALKVAAK-NH2) | 32/32 µM | 256 µM | 32/32 µM | 64 µM | 32 µM | 128 µM | 8 µM | 32 µM | 128 µM | 256 µM | 64 µM | 128 µM | > 512 µM | > 512 µM | 64 µM | 128 µM | > 512 µM | > 512 µM | 128 µM | 256 µM | MIC ([6]; pH 6): 256 µM (≈ 326 µg/mL); MIC ([6]; pH 7): 128 µM (≈ 163 µg/mL); MIC ([6]; pH 8): 128 µM (≈ 163 µg/mL); toxicity to larvae without MRSA infection [7]: No noticeable cytotoxicity
CC(C)C[C@H](NC(=O)[C@H](C)NC(=O)[C@H](Cc1c[nH]c2ccccc12)NC(=O)[C@H](CCCCN)NC(=O)[C@H](CC(C)C)NC(=O)[C@@H](N)Cc1ccccc1)C(=O)N[C@@H](CCCCN)C(=O)N[C@@H](Cc1c[nH]c2ccccc12)C(=O)N[C@@H](C)C(=O)N[C@@H](C)C(=O)N[C@@H](CCCCN)C(N)=O [OSe] (H-FLKWALKWAAK-NH2) | 32 µM | 32 µM | 8 µM | 16 µM | 32 µM | 32 µM | 4 µM | 8 µM | 128 µM | 128 µM | 64 µM | 64 µM | > 512 µM | > 512 µM | 16 µM | 32 µM | > 512 µM | > 512 µM | 64 µM | 128 µM | MIC ([6]; pH 6): 32 µM (≈ 43.5 µg/mL); MIC ([6]; pH 7): 64 µM (≈ 87.1 µg/mL); MIC ([6]; pH 8): 32 µM (≈ 43.5 µg/mL); toxicity to larvae without MRSA infection [7]: No noticeable cytotoxicity
CC(C)C[C@H](NC(=O)[C@H](C)NC(=O)[C@H](Cc1c[nH]c2ccccc12)NC(=O)[C@H](CCCCN)NC(=O)[C@@H]1CCCN1C(=O)[C@H](CC(C)C)NC(=O)[C@@H](N)Cc1ccccc1)C(=O)N[C@@H](CCCCN)C(=O)N[C@@H](Cc1c[nH]c2ccccc12)C(=O)N[C@@H](C)C(=O)N[C@@H](C)C(=O)N[C@@H](CCCCN)C(N)=O [OSf] (H-FLPKWALKWAAK-NH2; N-terminus assumed) | 32 µM | 128 µM | 16 µM | 64 µM | 32 µM | 128 µM | 8 µM | 32 µM | 128 µM | 256 µM | 32 µM | 64 µM | > 512 µM | > 512 µM | 32 µM | 128 µM | > 512 µM | > 512 µM | 64 µM | 256 µM | MIC ([6]; pH 6): 512 µM (≈ 746 µg/mL); MIC ([6]; pH 7): 32 µM (≈ 46.7 µg/mL); MIC ([6]; pH 8): 128 µM (≈ 187 µg/mL); toxicity to larvae without MRSA infection [7]: No noticeable cytotoxicity
